Like-named read-outs stand apart in the source and are kept apart here.
Key:
[1] = Example 1 single-dose plasma pharmacokinetics after intranasal administration; assay type: in vivo, human; details: single intranasal 160 mg cocaine HCl; for AUC(0-inf) / AUC(0-t) / Cmax / MRT / Tmax / Vd/F / half-life: human, inhaled or intranasal, 160 mg
Description: Single-dose plasma and urinary pharmacokinetics of the pharmaceutical composition following intranasal administration was characterized in this study. This was a single-dose study in 30 healthy volunteers. The objective of the study was to examine the systemic pharmacokinetics of the pharmaceutical composition following acute, topical intranasal administration.
A single dose of a pharmaceutical composition was administered to both nostrils using cottonoid pledgets. […] Each pledget absorbed approximately 1 mL of pharmaceutical composition (i.e., 40 mg cocaine hydrochloride). Two soaked pledgets were placed into each nasal cavity of the subject and against the anterior septum for 20 minutes; thus, a total dose of 160 mg of cocaine hydrochloride was administered.
Blood samples were collected pre-dose (30 minutes before pledget insertion), and 7.5, 15, 20, 30, 45, 60, 75, 90, and 105 minutes and 2, 3, 4, 6, 8, 10, and 12 hours from the start of application of the pharmaceutical composition.
The effect of gender on Cmax, Tmax, AUClast, AUCinf, and t1/2 was determined. The effects of age, body weight, and BMI on AUClast were determined.

[2] = Example 3 urinary pharmacokinetics, normal hepatic function vs hepatic impairment; assay type: in vivo, human; details: for Urine Recovery as % of Dose, Geomean / Urine Recovery as % of Dose, Mean: 0-32 h, single intranasal dose; for CL renal: both sexes, other: intranasal (drug-soaked pledgets in the nasal cavity), 160 mg; for CL renal / dose excreted: human, urine; for dose excreted: other: intranasal, read-out: 0-32 h urinary recovery of unchanged drug as percent of the administered dose
Description: Urine was collected prior to dosing and from 0-2, 2-4, 4-8, 8-12, 12-24, and 24-32 hours after beginning of dose application. […] Urinary pharmacokinetic parameters included total urinary recovery (μg), urinary recovery as a percentage of dose, and CLr.

[3] = normal hepatic function, single intranasal 160 mg cocaine HCl
[4] = subjects with hepatic impairment, 32 hours post administration

SMILES: COC(=O)[C@H]1[C@@H](OC(=O)c2ccccc2)C[C@@H]2CC[C@H]1N2C [Cocaine, cocaine, reference compound]
- AUC(0-inf) ([1]; both sexes, plasma, healthy subjects, plasma, read-out: AUCinf (Geometric Mean)): 50.3 ng·h/mL
- AUC(0-inf) ([1]; both sexes, plasma, healthy subjects, plasma, read-out: AUCinf (Mean)): 54.9 ng·h/mL
- AUC(0-t) ([1]; both sexes, plasma, healthy subjects, plasma, read-out: AUClast (Geometric Mean)): 34.2 ng·h/mL
- AUC(0-t) ([1]; both sexes, plasma, healthy subjects, plasma, read-out: AUClast (Mean)): 38.4 ng·h/mL
- Cmax ([1]; both sexes, plasma, healthy subjects, plasma, read-out: Cmax (Geometric Mean)): 32.8 ng/mL
- MRT ([1]; both sexes, plasma, healthy subjects, plasma, read-out: MRT (Geometric Mean)): 90 min
- MRT ([1]; both sexes, plasma, healthy subjects, plasma, read-out: MRT (Mean)): 93.6 min
- Tmax ([1]; both sexes, plasma, healthy subjects, plasma, read-out: Tmax (Geometric Mean)): 22.4 min
- Vd/F ([1]; both sexes, plasma, healthy subjects, plasma, read-out: Vd/F (Geometric Mean)): 3680 L
- Vd/F ([1]; both sexes, plasma, healthy subjects, plasma, read-out: Vd/F (Mean)): 3880 L
- AUC(0-inf) ([1]; female, plasma, Female healthy subjects, plasma, read-out: AUCinf (Geometric mean)): 53.9 ng·h/mL
- AUC(0-inf) ([1]; female, plasma, Female healthy subjects, plasma, read-out: AUCinf (Mean)): 60.6 ng·h/mL
- AUC(0-inf) ([1]; female, plasma, Female healthy subjects, plasma, read-out: AUCinf (Median)): 57.6 ng·h/mL
- AUC(0-t) ([1]; female, plasma, Female healthy subjects, plasma, read-out: AUClast (Geometric mean)): 39.4 ng·h/mL
- AUC(0-t) ([1]; female, plasma, Female healthy subjects, plasma, read-out: AUClast (Mean)): 44.4 ng·h/mL
- AUC(0-t) ([1]; female, plasma, Female healthy subjects, plasma, read-out: AUClast (Median)): 32.4 ng·h/mL
- Cmax ([1]; female, plasma, Female healthy subjects, plasma, read-out: Cmax (Geometric mean)): 35.5 ng/mL
- Cmax ([1]; female, plasma, Female healthy subjects, plasma, read-out: Cmax (Mean)): 39 ng/mL
- Cmax ([1]; female, plasma, Female healthy subjects, plasma, read-out: Cmax (Median)): 37 ng/mL
- Tmax ([1]; female, plasma, Female healthy subjects, plasma, read-out: Tmax (Geometric mean)): 23.1 min
- Tmax ([1]; female, plasma, Female healthy subjects, plasma, read-out: Tmax (Mean)): 26.9 min
- Tmax ([1]; female, plasma, Female healthy subjects, plasma, read-out: Tmax (Median)): 20 min
- half-life ([1]; female, plasma, Female healthy subjects, plasma, read-out: t1/2 (Geometric mean) (converted)): 56.5 min
- half-life ([1]; female, plasma, Female healthy subjects, plasma, read-out: t1/2 (Mean) (converted)): 60.6 min
- half-life ([1]; female, plasma, Female healthy subjects, plasma, read-out: t1/2 (Median) (converted)): 60.6 min
- fraction of the 160 mg dose absorbed intact during the 20-minute exposure period (rough estimate, CL/F vs intravenous CL) ([1]; healthy subjects): ~4%
- % EXTRAP (Geometric Mean) ([1]; healthy subjects, plasma): 17.7%
- % EXTRAP (Mean) ([1]; healthy subjects, plasma): 18.7%
- CL/F (Mean) ([1]; healthy subjects, plasma): 3,096 L/h
- Clast (Geometric mean) ([1]; healthy subjects, plasma): 7.05 ng/mL
- Clast (Mean) ([1]; healthy subjects, plasma): 7.18 ng/mL
- Tlast (Geometric mean) ([1]; healthy subjects, plasma): 2.31 h
- Tlast (Mean) ([1]; healthy subjects, plasma): 2.40 h
- Tmax (Mean) ([1]; healthy subjects, plasma): 26 min
- t1/2 (Geometric mean) ([1]; healthy subjects, plasma): 58.5 min
- Cmax ([1]; plasma, healthy subjects, plasma, read-out: Cmax (Mean)): 37 ± 17.3 ng/mL
- Cmax ([1]; plasma, healthy subjects, plasma, read-out: Cmax (range across subjects)): 7.93 to 70.3 ng/mL
- Tmax ([1]; plasma, healthy subjects, plasma, read-out: Tmax (Mean)): 25.8 ± 20.4 min
- half-life ([1]; plasma, healthy subjects, plasma, read-out: t1/2 (Mean) (converted)): 62.4 ± 21 min
- AUC(0-inf) ([1]; male, plasma, Male healthy subjects, plasma, read-out: AUCinf (Geometric mean)): 45.7 ng·h/mL
- AUC(0-inf) ([1]; male, plasma, Male healthy subjects, plasma, read-out: AUCinf (Mean)): 47.2 ng·h/mL
- AUC(0-inf) ([1]; male, plasma, Male healthy subjects, plasma, read-out: AUCinf (Median)): 46.2 ng·h/mL
- AUC(0-t) ([1]; male, plasma, Male healthy subjects, plasma, read-out: AUClast (Geometric mean)): 29.1 ng·h/mL
- AUC(0-t) ([1]; male, plasma, Male healthy subjects, plasma, read-out: AUClast (Mean)): 31.5 ng·h/mL
- AUC(0-t) ([1]; male, plasma, Male healthy subjects, plasma, read-out: AUClast (Median)): 28.5 ng·h/mL
- Cmax ([1]; male, plasma, Male healthy subjects, plasma, read-out: Cmax (Geometric mean)): 30 ng/mL
- Cmax ([1]; male, plasma, Male healthy subjects, plasma, read-out: Cmax (Mean)): 34.6 ng/mL
- Cmax ([1]; male, plasma, Male healthy subjects, plasma, read-out: Cmax (Median)): 31.6 ng/mL
- Tmax ([1]; male, plasma, Male healthy subjects, plasma, read-out: Tmax (Geometric mean)): 21.7 min
- Tmax ([1]; male, plasma, Male healthy subjects, plasma, read-out: Tmax (Mean)): 25 min
- Tmax ([1]; male, plasma, Male healthy subjects, plasma, read-out: Tmax (Median)): 20 min
- half-life ([1]; male, plasma, Male healthy subjects, plasma, read-out: t1/2 (Geometric mean) (converted)): 60.6 min
- half-life ([1]; male, plasma, Male healthy subjects, plasma, read-out: t1/2 (Mean) (converted)): 63.6 min
- half-life ([1]; male, plasma, Male healthy subjects, plasma, read-out: t1/2 (Median) (converted)): 58 min
- Urine Recovery as % of Dose, Geomean ([2]; Impaired hepatic function): 0.071 % of Dose
- Urine Recovery as % of Dose, Mean ([2]; Impaired hepatic function): 0.143 % of Dose
- Urine Recovery as % of Dose, Geomean ([2]; Normal hepatic function): 0.057 % of Dose
- Urine Recovery as % of Dose, Mean ([2]; Normal hepatic function): 0.072 % of Dose
- CL renal ([2]; Impaired hepatic function, Table 26, read-out: CLr Geomean (converted)): 7.8 mL/min
- CL renal ([2]; Impaired hepatic function, Table 26, read-out: CLr Mean (converted)): 16.6 mL/min
- CL renal ([2]; Normal hepatic function, Table 26, read-out: CLr Geomean (converted)): 19.5 mL/min
- CL renal ([2]; Normal hepatic function, Table 26, read-out: CLr Mean (converted)): 29.8 mL/min
- CL renal ([2]; hepatically impaired patients, 32 hours from administration, read-out: renal clearance, range observed): 1.27 to 32 mL/min
- CL renal ([2]; subjects with hepatic impairment, Table 30, read-out: Renal Clearance, geometric mean (converted)): 7.79 mL/min
- CL renal ([2]; subjects with hepatic impairment, Table 30, read-out: Renal Clearance, mean (converted)): 16.6 mL/min
- CL renal ([2]; subjects with hepatic impairment, Table 30, read-out: Renal Clearance, median (converted)): 15.6 mL/min
- CL renal ([2]; subjects with hepatic impairment, read-out: Renal Clearance, geometric mean (converted)): 7.79 mL/min
- CL renal ([2]; subjects with hepatic impairment, read-out: Renal Clearance, mean (converted)): 16.6 mL/min
- CL renal ([2]; subjects with hepatic impairment, read-out: Renal Clearance, median (converted)): 15.6 mL/min
- CL renal ([2]; subjects with normal hepatic function, Table 29, read-out: Renal Clearance, geometric mean (converted)): 19.5 mL/min
- CL renal ([2]; subjects with normal hepatic function, Table 29, read-out: Renal Clearance, mean (converted)): 29.8 mL/min
- CL renal ([2]; subjects with normal hepatic function, Table 29, read-out: Renal Clearance, median (converted)): 22 mL/min
- CL renal ([2]; subjects with normal hepatic function, read-out: Renal Clearance, geometric mean (converted)): 19.5 mL/min
- CL renal ([2]; subjects with normal hepatic function, read-out: Renal Clearance, mean (converted)): 29.8 mL/min
- CL renal ([2]; subjects with normal hepatic function, read-out: Renal Clearance, median (converted)): 22 mL/min
- dose excreted ([2]; hepatic impairment): 0.071%
- dose excreted ([2]; normal hepatic function): 0.057%
- 0-32 h Urinary Recovery (geometric mean) [2, 3]: 81.5 µg
- 0-32 h Urinary Recovery (mean) [2, 3]: 102.25 µg
- 0-32 h Urinary Recovery (median) [2, 3]: 108.1 µg
- 0-32 h Urinary Recovery (geometric mean) [2, 4]: 101.4 µg
- 0-32 h Urinary Recovery (mean) [2, 4]: 204 µg
